Experimental findings from patent US20210038607A1, “OXADIAZOLYLTHIOPHENE DERIVATIVES USEFUL AS HISTONE DEACETYLASE INHIBITORS” (Karus Therapeutics Limited, priority 2018, published 2021) are described below.

The subject of experiment [1] is acetylated α-tubulin in A549 lung adenocarcinoma cells. Briefly: Acetylated α-tubulin in-cell western (ICW) assay. The experiment is classed as cell-based. To be noted: Homo sapiens, 16 h exposure, relative to 40 μM scriptaid positive control, read-out: EC50 Ac-α-tubulin, A549 cells. The method in brief:
(§1)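 A549 cells exposed to compound for 16 h at 37 °C (0.4% DMSO final), then fixed and immunostained for acetylated α-tubulin or histone H3 with near-infrared detection, signal normalised to cell stain. Response expressed relative to DMSO controls and to 40 μM scriptaid (tubulin) or 40 μM TSA (H3); EC50 by constrained nonlinear regression.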

Experiment [2] concerns acetylated histone H3 in A549 lung adenocarcinoma cells. Put plainly: Acetylated histone H3 in-cell western (ICW) assay. It counts as cell-based. The conditions noted are these: Homo sapiens, 16 h exposure, relative to 40 μM Trichostatin A positive control, read-out: EC50 Ac-histone H3, A549 cells. The method in brief: as §1

In general, EC50 refers to the midpoint of the concentration-response curve.

For `CS(=O)(=O)c1nccc(N(Cc2ccc(-c3noc(C(F)(F)F)n3)s2)c2cnccn2)n1` [Example CE, 2-Methanesulfonyl-N-(pyrazin-2-yl)-N-({5-[5-(trifluoromethyl)-1,2,4-oxadiazol-3-yl]thiophen-2-yl}methyl)pyrimidin-4-amine], the 50% effective concentration (EC50) in experiment [1] and in experiment [2] was not below 10 µM throughout.

For `FC(F)(F)c1ccc(N(Cc2ccc(-c3noc(C(F)(F)F)n3)s2)c2cnccn2)nn1` [Example DH, N-(Pyrazin-2-yl)-6-(trifluoromethyl)-N-({5-[5-(trifluoromethyl)-1,2,4-oxadiazol-3-yl]thiophen-2-yl}methyl)pyridazin-3-amine], the concentration for a half-maximal effect (EC50) in experiment [1] and in experiment [2] was not below 10 µM throughout.

Consider `FC(F)(F)c1nc(-c2ccc(CN(c3cnccn3)c3ccc(N4CCCC4)nn3)s2)no1` [Example DI, N-(Pyrazin-2-yl)-6-(pyrrolidin-1-yl)-N-({5-[5-(trifluoromethyl)-1,2,4-oxadiazol-3-yl]thiophen-2-yl}methyl)pyridazin-3-amine], for which the values for the concentration giving a half-maximal response (EC50) in experiment [1] and in experiment [2] were 1 to 10 µM and not below 10 µM, respectively.

Turning to `CS(=O)(=O)c1ccc(N(Cc2ccc(-c3noc(C(F)(F)F)n3)s2)c2cnccn2)nn1` [Example DL, 6-Methanesulfonyl-N-(pyrazin-2-yl)-N-({5-[5-(trifluoromethyl)-1,2,4-oxadiazol-3-yl]thiophen-2-yl}methyl)pyridazin-3-amine], the 50% effective concentration (EC50) is 1 to 10 µM in experiment [1] and not below 10 µM in experiment [2].
